Laboratory results: patent US7629150B2, “Transformed cell harboring DNA or RNA encoding sugar chain synthesizing agent having β1,3-N-acetylglucosaminyltransferase activity” (Kyowa Hakko Kirin Co., Ltd., priority 2000, dated 2009)

Key:
Format in all cases: biochemical
G6sec2 [1] = molecular target: T1, G6sec2 (Homo sapiens, UniProt Q9BYG0); assay: β1,3-N-acetylglucosaminyltransferase activity using pyridylaminated oligosaccharides as substrates; details: pyridylaminated oligosaccharides 50 μmol/l, 37° C., 14.5 hours, LNnT defined as 100%
T1 construct: made in house; host or cells: Sf21 insect cells infected with pVL1393-F2G6sec2-derived recombinant baculovirus
T1 sequence (Q9BYG0 39-378): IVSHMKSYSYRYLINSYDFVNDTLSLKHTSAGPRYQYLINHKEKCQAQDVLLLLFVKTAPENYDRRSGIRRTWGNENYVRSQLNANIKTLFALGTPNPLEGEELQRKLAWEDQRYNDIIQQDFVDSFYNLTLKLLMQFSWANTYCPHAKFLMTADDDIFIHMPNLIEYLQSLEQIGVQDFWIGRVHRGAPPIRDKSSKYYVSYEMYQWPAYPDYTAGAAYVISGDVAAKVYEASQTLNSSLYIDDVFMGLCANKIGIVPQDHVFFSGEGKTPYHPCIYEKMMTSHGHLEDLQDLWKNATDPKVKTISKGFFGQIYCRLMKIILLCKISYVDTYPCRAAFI
Protocol: After carrying out the reaction at 37° C. for 14.5 hours in 30 μl of an assay solution [150 mmol/l sodium cacodylate (pH 7.2), 50 mmol/l UDP-GlcNAc (manufactured by SIGMA), 0.4% Triton CF-54, 10 mmol/l MnCl2, 50 μmol/l pyridylaminated sugar chain substrate, a purified enzyme solution (G6sec2)], the product was detected by HPLC. The purified enzyme (G6sec2) was obtained according to the method shown in Example 8(6). The purified enzyme (280 μl) was prepared from 30 ml of a culture supernatant of Sf21 infected with the recombinant virus derived from pVL1393-F2G6sec2, and the assay was carried out using 5 μl thereof. As substrates, LnNT, lacto-N-tetraose (Galβ1-3GlcNAcβ1-3Galβ1-4Glc (hereinafter referred to as “LNT”), lacto-N-fucopentaose II (Galβ1-3(Fucα1-4)GlcNAcβ1-3Galβ1-4Glc; hereinafter referred to as “LNFP-II”), lacto-N-fucopentaose III (Galβ1-4(Fucα1-3)GlcNAcβ1-3Galβ1-4Glc; hereinafter referred to as “LNFP-III”), lacto-N-fucopentaose V (Galβ1-3GlcNAcβ1-3Galβ1-4(Fucα1-3)Glc; hereinafter referred to as “LNFP-V”), and lacto-N-difucohexaose II (Galβ1-3(Fucα1-4)GlcNAcβ1-3Galβ1-4(Fucα1-3)Glc; hereinafter referred to as “LNDFH-II”) (all manufactured by Oxford Glycosystems) were fluorescently-labeled with aminopyridine and used. The substrates were fluorescently-labeled according to a conventional method [Agric. Biol. Chem., 54, 2169 (1990)].
After carrying out the reaction on each substrate using an assay solution containing UDP-GlcNAc (saccharide donor) and an assay solution containing no donor and subsequently analyzing by HPLC, peaks appeared only in the assay solution containing UDP-GlcNAc was defined as products.
The assay solution after completion of the reaction was treated at 100° C. for 5 minutes and then centrifuged at 10,000×g for 5 minutes to obtain a supernatant, and a part thereof (5 μl) was subjected to HPLC.
The HPLC was carried out using TSK-gel ODS-80Ts Column (4.6×300 mm; manufactured by TOSOH) and 0.02 mol/l ammonium acetate buffer (pH 4.0) as the eluant at an elution temperature of 50° C. and a flow rate of 0.5 ml/min.
Detection and determination of products were carried out using a fluorescence spectrophotometer FP-920 (manufactured by JASCO Corporation) (excitation wavelength: 320 nm, radiation wavelength: 400 nm).

G6sec1 = molecular target: T2, G6sec1 (Homo sapiens, UniProt Q9BYG0); assay: β1,3-N-acetylglucosaminyltransferase activity of purified FLAG peptide-fused G6 polypeptide, 2-aminobenzamide-labeled oligosaccharide substrates; details: 2-aminobenzamide-labeled oligosaccharides; LNnT defined as 100%
T2 construct: made in house; host or cells: Sf21 insect cells infected with pVL1393-F2G6sec1-derived recombinant baculovirus
T2 sequence (Q9BYG0 36-378): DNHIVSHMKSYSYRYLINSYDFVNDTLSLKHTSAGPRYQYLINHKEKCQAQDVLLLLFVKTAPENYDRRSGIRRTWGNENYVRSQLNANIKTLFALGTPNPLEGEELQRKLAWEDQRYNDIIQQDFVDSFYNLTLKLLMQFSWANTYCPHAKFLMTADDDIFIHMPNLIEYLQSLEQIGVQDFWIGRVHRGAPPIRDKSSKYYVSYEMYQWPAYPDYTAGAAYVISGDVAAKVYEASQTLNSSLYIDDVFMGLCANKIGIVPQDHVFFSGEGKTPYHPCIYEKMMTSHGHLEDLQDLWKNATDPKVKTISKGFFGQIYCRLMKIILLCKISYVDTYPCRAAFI
Protocol: (§1) β1,3-N-Acetylglucosaminyltransferase activity of the FLAG peptide-fused G6 polypeptide secreted and produced in insect cells was measured by using the eluate prepared in Example 8(6). The method of Example 7 was used for the activity measurement.
(§2) As substrates, oligosaccharides [LNnT, Galβ1-4GlcNAcβ1-3Galβ1-4GlcNAc (hereinafter referred to as “2LN”), Galβ1-4GlcNAcβ1-3Galβ1-4GlcNAcβ1-3Galβ1-4GlcNAc (hereinafter referred to as “3LN”), Galβ1-4GlcNAcβ1-3Galβ1-4GlcNAcβ1-3Galβ1-4GlcNAcβ1-3Galβ1-4GlcNAc (hereinafter referred to as “4LN”), Galβ1-4GlcNAcβ1-3Galβ1-4GlcNAcβ-3Galβ1-4GlcNAcβ1-3Galβ1-4GlcNAcβ1-3Galβ1-4GlcNAc (hereinafter referred to as “5LN”), or Galβ1-4(SO3-6)GlcNAcβ1-3Galβ1-4(SO3-6)GlcNAc (hereinafter referred to as “L2L2”)] were labeled with 2-aminobenzamide and used. 2-Aminobenzamide-labeling of oligosaccharides was carried out using SIGMA 2AB glycan labeling kit (manufactured by Oxford Glycoscience) according to the manufacture's instructions of the kit. LNnT was purchased from Oxford Glycosystems. Other oligosaccharides were obtained from Seikagaku Corporation.
Specifically, the reaction was carried out at 37° C. for 16 hours in 20 μl of an assay solution [150 mmol/l sodium cacodylate (pH 7.2), 50 mmol/l UDP-GlcNAc (manufactured by SIGMA), 0.4% Triton CF-54, 10 mmol/l MnCl2, 5 μmol/12-aminobenzamide-labeled sugar chain substrate, the above purified enzyme solution], and then the product was detected by high performance liquid chromatography (HPLC, details will be described below). […]
(§3) The assay solution after completion of the reaction was treated at 100° C. for 5 minutes and then mixed with 50 μl of pure water for HPLC and centrifuged at 10,000×g for 5 minutes to obtain the supernatant. To a tube containing the assay solution, 50 μl of pure water for HPLC was added again, the tube was washed, and suparnatant was obtained by centrifugation at 10,000×g for 5 minutes and was combined with the first supernatant. Next, the supernatant was passed through Ultrafree-MC column (manufactured by Millipore) and a portion thereof (10 μl) was subjected to HPLC. The Ultrafree-MC column was used according to the method described in the manufacture's instructions attached thereto.
(§4) The HPLC was carried out using TSK-gel ODS-80Ts Column (4.6×300 mm; manufactured by TOSOH) as a column and 0.02 mol/l ammonium acetate buffer containing 7% methanol (pH 4.0) as an eluant at an elution temperature of 50° C. and a flow rate of 1 ml/min.
(§5) The product was detected using a fluorescence spectrophotometer FP-920 (manufactured by JASCO Corporation) (excitation wavelength: 330 nm, radiation wavelength: 420 nm).

G6sec2 [2] = molecular target: T1, G6sec2; assay: as above; details: 2-aminobenzamide-labeled oligosaccharides, LNnT defined as 100%; for Relative activity (%) Test 2 G6sec2: enzyme prepared again
Protocol: as §1, §2
Specifically, the reaction was carried out at 37° C. for 16 hours in 20 μl of an assay solution [150 mmol/l sodium cacodylate (pH 7.2), 50 mmol/l UDP-GlcNAc (manufactured by SIGMA), 0.4% Triton CF-54, 10 mmol/l MnCl2, 5 μmol/12-aminobenzamide-labeled sugar chain substrate, the above purified enzyme solution], and then the product was detected by high performance liquid chromatography (HPLC, details will be described below). As the enzyme, an eluate (1.5 μl) prepared from a culture supernatant of Sf21 infected with the recombinant virus derived from pVL1393-F2G6sec1 or an eluate (1.4 μl) prepared from a culture supernatant of Sf21 infected with the recombinant virus derived from pVL1393-F2G6sec2, prepared in Example 8(6), was used.
as §3, §4, §5
Also, a purified enzyme (G6sec2) was again prepared using the method shown in Example 8(6), its substrate specificity was again examined, and the results are also shown in Table 1 (Test 2 in Table 1). The purified enzyme (280 μl) was prepared from 30 ml of a culture supernatant of Sf21 infected with the recombinant virus derived from pVL1393-F2G6sec2, and the assay was carried out using a 4 μl portion thereof. Relative activities when the activity measured using 2-aminobenzamide-labeled LNnT as the substrate is defined as 100% are shown in the table.

`CC(=O)N[C@H]1[C@H](O[C@H]2[C@@H](O)[C@@H](CO)O[C@@H](O[C@H]3[C@H](O)[C@@H](O)C(O)O[C@@H]3CO)[C@@H]2O)O[C@H](CO)[C@@H](O)[C@@H]1O[C@@H]1O[C@H](CO)[C@H](O)[C@H](O)[C@H]1O` (stereo partly drawn) [LNT, lacto-N-tetraose] was tested, and the “Relative activity (%)” value (G6sec2 [1]) was 5.5%.

For “Galβ1-4GlcNAcβ1-3Galβ1-4GlcNAcβ-3Galβ1-4GlcNAcβ1-3Galβ1-4GlcNAcβ1-3Galβ1-4GlcNAc [5LN]”, the “Relative activity (%) Test 1 G6sec1” value (G6sec1) was 9.3%, the “Relative activity (%) Test 1 G6sec2” value (G6sec2 [2]) was 11.5% and the “Relative activity (%) Test 2 G6sec2” value (G6sec2 [2]) was 12.3%.

For `CC(=O)N[C@H]1[C@H](O[C@H]2[C@@H](O)[C@@H](CO)O[C@@H](O[C@H]3[C@H](O)[C@@H](NC(C)=O)[C@H](O[C@H]4[C@@H](O)[C@@H](CO)O[C@@H](O[C@H]5[C@H](O)[C@@H](NC(C)=O)C(O)O[C@@H]5CO)[C@@H]4O)O[C@@H]3CO)[C@@H]2O)O[C@H](CO)[C@@H](O[C@@H]2O[C@H](CO)[C@H](O)[C@H](O)[C@H]2O)[C@@H]1O` (stereo partly drawn) [3LN, Galβ1-4GlcNAcβ1-3Galβ1-4GlcNAcβ1-3Galβ1-4GlcNAc], the “Relative activity (%) Test 1 G6sec1” value (G6sec1) was 92.9%, the “Relative activity (%) Test 1 G6sec2” value (G6sec2 [2]) was 95.8% and the “Relative activity (%) Test 2 G6sec2” value (G6sec2 [2]) was 79.2%.

“Galβ1-4GlcNAcβ1-3Galβ1-4GlcNAcβ1-3Galβ1-4GlcNAcβ1-3Galβ1-4GlcNAc [4LN]” was tested, and the “Relative activity (%) Test 1 G6sec1” value (G6sec1) was 13.2%, the “Relative activity (%) Test 1 G6sec2” value (G6sec2 [2]) was 21.5% and the “Relative activity (%) Test 2 G6sec2” value (G6sec2 [2]) was 10.0%.

With “Galβ1-4(SO3-6)GlcNAcβ1-3Galβ1-4(SO3-6)GlcNAc [L2L2]” the “Relative activity (%) Test 2 G6sec2” value (G6sec2 [2]) was 5.9%.

`CC(=O)N[C@H]1[C@H](O[C@H]2[C@@H](O)[C@@H](CO)O[C@@H](O[C@@H]([C@H](O)[C@@H](O)C=O)[C@H](O)CO)[C@@H]2O)O[C@H](CO)[C@@H](O[C@@H]2O[C@@H](C)[C@@H](O)[C@@H](O)[C@@H]2O)[C@@H]1O[C@@H]1O[C@H](CO)[C@H](O)[C@H](O)[C@H]1O` [LNFP-II, lacto-N-fucopentaose II] was tested, and the “Relative activity (%)” value (G6sec2 [1]) was <0.05%.

With `CC(=O)N[C@H]1[C@H](O[C@H]2[C@@H](O)[C@@H](CO)O[C@@H](O[C@@H]([C@H](O[C@@H]3O[C@@H](C)[C@@H](O)[C@@H](O)[C@@H]3O)[C@@H](O)C=O)[C@H](O)CO)[C@@H]2O)O[C@H](CO)[C@@H](O[C@@H]2O[C@@H](C)[C@@H](O)[C@@H](O)[C@@H]2O)[C@@H]1O[C@@H]1O[C@H](CO)[C@H](O)[C@H](O)[C@H]1O` [LNDFH-II, lacto-N-difucohexaose II] the “Relative activity (%)” value (G6sec2 [1]) was <0.05%.

lacto-N-fucopentaose V [LNFP-V] was tested, and the “Relative activity (%)” value (G6sec2 [1]) was 4.9%.

In the case of lacto-N-fucopentaose III [LNFP-III], the “Relative activity (%)” value (G6sec2 [1]) is reported as 4.9%.
